Test results from ChEMBL document CHEMBL4359868, “New anthranilic acid-incorporating N-benzenesulfonamidophthalimides as potent inhibitors of carbonic anhydrases I, II, IX, and XII: Synthesis, in vitro testing, and in silico assessment” (Eur J Med Chem, 2019).

Tests used:
[1] = biological target: T1, Carbonic anhydrase 9 (Homo sapiens, UniProt Q16790)
Description: Inhibition of recombinant human CA9 preincubated for 15 mins by phenol red dye-based stopped-flow CO2 hydration assay

[2] = biological target: Carbonic anhydrase 1 (Homo sapiens, UniProt P00915); experiment: Inhibition of recombinant human CA1 preincubated for 15 mins by phenol red dye-based stopped-flow CO2 hydration assay
Sequence of Carbonic anhydrase 1 (P00915 whole entry): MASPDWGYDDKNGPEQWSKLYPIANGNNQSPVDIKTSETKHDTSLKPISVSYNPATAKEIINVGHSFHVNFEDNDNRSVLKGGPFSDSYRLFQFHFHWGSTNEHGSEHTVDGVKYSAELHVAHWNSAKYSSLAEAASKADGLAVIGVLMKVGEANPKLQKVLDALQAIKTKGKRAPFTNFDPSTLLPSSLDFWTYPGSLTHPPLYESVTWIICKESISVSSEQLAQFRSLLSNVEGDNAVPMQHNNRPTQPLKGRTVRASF

[3] = biological target: Carbonic anhydrase 12 (Homo sapiens, UniProt O43570)
Sequence of Carbonic anhydrase 12 (O43570 whole entry): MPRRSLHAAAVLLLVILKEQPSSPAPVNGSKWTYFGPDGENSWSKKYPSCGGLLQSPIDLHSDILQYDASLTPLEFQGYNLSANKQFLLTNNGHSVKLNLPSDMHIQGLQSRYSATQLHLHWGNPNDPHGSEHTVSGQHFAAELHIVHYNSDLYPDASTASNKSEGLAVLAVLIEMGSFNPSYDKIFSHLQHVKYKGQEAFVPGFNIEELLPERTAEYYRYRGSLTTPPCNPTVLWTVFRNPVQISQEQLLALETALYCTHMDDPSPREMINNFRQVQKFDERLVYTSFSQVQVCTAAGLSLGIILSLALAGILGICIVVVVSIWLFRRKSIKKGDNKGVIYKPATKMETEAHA
Description: Inhibition of recombinant human CA12 preincubated for 15 mins by phenol red dye-based stopped-flow CO2 hydration assay

[4] = biological target: T1, Carbonic anhydrase 9; conditions: at 0.01 µM
Description: Inhibition of recombinant human CA9 at 10^-8 M preincubated for 15 mins by phenol red dye-based stopped-flow CO2 hydration assay

[5] = biological target: T1, Carbonic anhydrase 9; conditions: at 1 µM
Description: Inhibition of recombinant human CA9 at 10^-6 M preincubated for 15 mins by phenol red dye-based stopped-flow CO2 hydration assay

[6] = biological target: T1, Carbonic anhydrase 9; conditions: at 0.1 µM
Description: Inhibition of recombinant human CA9 at 10^-7 M preincubated for 15 mins by phenol red dye-based stopped-flow CO2 hydration assay

[7] = biological target: Carbonic anhydrase 2 (Homo sapiens, UniProt P00918); experiment: Inhibition of recombinant human CA2 preincubated for 15 mins by phenol red dye-based stopped-flow CO2 hydration assay
[8] = biological target: T1, Carbonic anhydrase 9; experiment: Inhibition of recombinant human CA9 at 10^-4 M preincubated for 15 mins by phenol red dye-based stopped-flow CO2 hydration assay
[9] = biological target: T1, Carbonic anhydrase 9; conditions: 10^-5 M
Description: Inhibition of recombinant human CA9 at 10^-5 M preincubated for 15 mins by phenol red dye-based stopped-flow CO2 hydration assay

Row | Ki [1] | Ki [2] | Ki [3] | Structure (SMILES) | also measured
1 | 0.036 µM | – | – | COc1ccc(NC(=O)c2ccc3c(c2)C(=O)N(Cc2ccc(S(N)(=O)=O)cc2)C3=O)c(C(=O)O)c1 | –
2 | 0.0039 µM | – | – | NS(=O)(=O)c1ccc(N2C(=O)c3ccc(C(=O)Nc4ccc(Cl)cc4C(=O)O)cc3C2=O)cc1 | inhibition [4]: 63%; inhibition [5]: 96%; inhibition [6]: 84%
3 | 0.0088 µM | – | – | COc1ccc(NC(=O)c2ccc3c(c2)C(=O)N(c2ccc(S(N)(=O)=O)cc2)C3=O)c(C(=O)O)c1 | –
4 | 0.46 µM | – | – | O=C(O)c1ccc(N2C(=O)c3ccc(C(=O)Nc4ccc(Cl)cc4C(=O)O)cc3C2=O)cc1 | inhibition [8]: 92%; inhibition [5]: 70%; inhibition [9]: 85%; inhibition [6]: 17%
5 | 0.96 µM | – | – | CCOC(=O)c1ccc(N2C(=O)c3ccc(C(=O)Nc4ccc(OC)cc4C(=O)O)cc3C2=O)cc1 | –
6 | 0.53 µM | – | – | CCOC(=O)c1ccc(N2C(=O)c3ccc(C(=O)Nc4ccc(Cl)cc4C(=O)O)cc3C2=O)cc1 | –
7 | 0.72 µM | – | – | COc1ccc(NC(=O)c2ccc3c(c2)C(=O)N(c2ccc(C(=O)O)cc2)C3=O)c(C(=O)O)c1 | –
8 | 0.0082 µM | – | – | COc1ccc(NC(=O)c2ccc3c(c2)C(=O)N(CCc2ccc(S(N)(=O)=O)cc2)C3=O)c(C(=O)O)c1 | –
9 | 8.2 µM | – | > 100 µM | COc1ccc(NC(=O)c2ccc3c(c2)C(=O)N(c2ccccc2)C3=O)c(C(=O)O)c1 | Ki [7]: > 100 µM

Continued, compound first:

Row | Structure (SMILES) | Ki [1] | Ki [2] | Ki [3] | also measured
10 | O=C(Nc1ccc(Cl)cc1C(=O)O)c1ccc2c(c1)C(=O)N(c1ccccc1)C2=O | 5.5 µM | > 100 µM | > 100 µM | –
11 | NS(=O)(=O)c1ccc(CCN2C(=O)c3ccc(C(=O)Nc4ccc(Cl)cc4C(=O)O)cc3C2=O)cc1 | 0.0073 µM | – | – | –
12 | COc1ccc(NC(=O)c2ccc3c(c2)C(=O)N(CCc2ccccc2)C3=O)c(C(=O)O)c1 | 31 µM | > 100 µM | > 100 µM | Ki [7]: > 100 µM
13 | O=C(Nc1ccc(Cl)cc1C(=O)O)c1ccc2c(c1)C(=O)N(CCc1ccccc1)C2=O | 39.6 µM | > 100 µM | > 100 µM | –
14 | O=C(Nc1ccc(Cl)cc1C(=O)O)c1ccc2c(c1)C(=O)OC2=O | 0.052 µM | – | – | –
15 | O=C(Nc1ccc(Cl)cc1C(=O)O)c1ccc2c(c1)C(=O)N(Cc1ccccc1)C2=O | 47.3 µM | > 100 µM | > 100 µM | Ki [7]: > 100 µM
16 | COc1ccc(NC(=O)c2ccc3c(c2)C(=O)OC3=O)c(C(=O)O)c1 | > 0.1 µM | > 0.1 µM | > 0.1 µM | –
17 | COc1ccc(NC(=O)c2ccc3c(c2)C(=O)N(Cc2ccccc2)C3=O)c(C(=O)O)c1 | 41.9 µM | > 100 µM | > 100 µM | –
18 | NS(=O)(=O)c1ccc(CN2C(=O)c3ccc(C(=O)Nc4ccc(Cl)cc4C(=O)O)cc3C2=O)cc1 | 0.0216 µM | – | – | –
